# ChEMBL document CHEMBL3882724 (2013)
# Target: T1, CYP21 (steroid 21-hydroxylase) (Homo sapiens, UniProt P08686)
# T1 sequence (P08686 whole entry): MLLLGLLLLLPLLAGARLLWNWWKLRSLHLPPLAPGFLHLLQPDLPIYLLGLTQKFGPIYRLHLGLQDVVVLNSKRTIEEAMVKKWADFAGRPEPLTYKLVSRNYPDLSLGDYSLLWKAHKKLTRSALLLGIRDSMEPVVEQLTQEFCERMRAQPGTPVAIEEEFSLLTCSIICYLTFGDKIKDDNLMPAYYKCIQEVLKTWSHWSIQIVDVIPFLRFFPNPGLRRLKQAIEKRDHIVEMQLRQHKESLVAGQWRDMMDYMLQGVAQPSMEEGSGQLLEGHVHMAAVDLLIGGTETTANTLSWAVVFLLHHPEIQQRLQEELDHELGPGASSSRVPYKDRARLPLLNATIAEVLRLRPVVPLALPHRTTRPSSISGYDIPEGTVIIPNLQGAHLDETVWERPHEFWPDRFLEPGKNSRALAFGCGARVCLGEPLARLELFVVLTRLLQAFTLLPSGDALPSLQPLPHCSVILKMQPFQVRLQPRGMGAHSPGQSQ
# Assay: Inhibition of human CYP21 transfected in HEK293 cells assessed as decrease in conversion of progesterone to 11-deoxycorticosterone preincubated for 5 hrs followed by progesterone addition measured after 20 hrs by ELISA
# Assay type: cell-based
# Parameters: concentration or dose not given beside the values
# Conditions: HEK293 cells transfected with human CYP21, probe progesterone
row,Compound,inhibition at 20 h [%]
1,C[C@]1(O)CC[C@@]2(C)C(=CC[C@@H]3[C@@H]2CC[C@]2(C)C(c4cncc(F)c4)=CC[C@@H]32)C1,10 to 50
2,C[C@]12CCC(=O)C=C1CC[C@@H]1[C@@H]2CC[C@]2(C)C(c3cncc(C(F)F)c3)=CC[C@@H]12,10 to 50
3,C[C@]12CC[C@@H](NS(=O)(=O)C3CC3)CC1=CC[C@@H]1[C@@H]2CC[C@]2(C)C(c3cccnc3)=CC[C@@H]12,10 to 50
4,CCNC(=O)N[C@@H]1CC[C@@]2(C)C(=CC[C@@H]3[C@@H]2CC[C@]2(C)C(c4cncc(F)c4)=CC[C@@H]32)C1,10 to 50
5,CC1C[C@@H]2[C@H](CC[C@]3(C)C(c4cccnc4)=CC[C@@H]23)[C@@]2(C)C=C/C(=N\O)C=C12 (stereo partly specified),10 to 50
6,COC1CC[C@@]2(C)C(=CC[C@@H]3[C@@H]2CC[C@]2(C)C(c4cncc(C)c4)=CC[C@@H]32)C1 (stereo partly specified),< 10
7,CCc1ccncc1C1=CC=C2[C@@H]3CCC4CNC(=O)CC[C@]4(C)[C@H]3CC[C@]12C (stereo partly specified),10 to 50
8,C[C@H]1C2CC[C@@H]3[C@H](CC[C@]4(C)C(c5cncc(C(F)F)c5)=CC[C@@H]34)[C@@]2(C)CC[C@@H]1O (stereo partly specified),10 to 50
9,CC1C[C@@H]2[C@H](CC[C@]3(C)C(c4cncc(C(F)F)c4)=CC[C@@H]23)[C@@]2(C)C=CC(=O)C=C12 (stereo partly specified),10 to 50
10,CCC(=O)O[C@H]1CC[C@@]2(C)C(=CC[C@H]3C4=CC=C(c5cccnc5)[C@@]4(C)CC[C@@H]32)C1,10 to 50
11,C[C@]12CC[C@H]3[C@@H](CCC4=CC(=O)CC[C@@]43C)C1=CC=C2c1cncc(Cl)c1,10 to 50
12,CC1(C)C2=CC[C@@H]3[C@H](CC[C@]4(C)C(c5cccnc5)=CC[C@@H]34)[C@@]2(C)CC/C1=N\O,< 10
13,C[C@@]1(O)CC[C@@]2(C)C(CC[C@@H]3[C@@H]2CC[C@]2(C)C(c4cccnc4)=CC[C@@H]32)C1 (stereo partly specified),< 10
14,C[C@]12CC[C@H]3[C@@H](CC4OC45C[C@@H](O)CC[C@]35C)C1=CC=C2c1cccnc1 (stereo partly specified),≥ 50
15,C[C@@H]1C2CC[C@@H]3[C@H](CC[C@]4(C)C(c5cncc(C(F)F)c5)=CC[C@@H]34)[C@@]2(C)CC[C@H]1O (stereo partly specified),< 10
16,CCc1ccncc1C1=CC=C2[C@@H]3CCC4C[C@@H](OC(C)=O)CC[C@]4(C)[C@H]3CC[C@]12C (stereo partly specified),10 to 50
17,C[C@]12CCC(=O)C=C1C(C1CC1)C[C@@H]1[C@@H]2CC[C@]2(C)C(c3cccnc3)=CC[C@@H]12 (stereo partly specified),< 10
18,C[C@]1(O)CC[C@@]2(C)C(=CC[C@@H]3[C@@H]2CC[C@]2(C)C(c4cccnc4)=CC[C@@H]32)C1,≥ 50
19,CN1CCC(C(=O)O[C@H]2CC[C@@]3(C)C(=CC[C@H]4C5=CC=C(c6cccnc6)[C@@]5(C)CC[C@@H]43)C2)CC1,10 to 50
20,CC1C[C@H]2[C@@H]3CC=C(c4cncc(F)c4)[C@@]3(C)CC[C@@H]2[C@@]2(C)CC[C@H](O)CC12O (stereo partly specified),10 to 50
21,C[C@]12CC(F)(F)CC1CC[C@@H]1[C@@H]2CC[C@]2(C)C(c3cccnc3)=CC[C@@H]12 (stereo partly specified),10 to 50
22,CC1C(O)CC[C@@]2(C)C1CC[C@@H]1[C@@H]2CC[C@]2(C)C(c3cncc(F)c3)=CC[C@@H]12 (stereo partly specified),< 10
23,CN1C(=O)CC[C@@]2(C)C1=CC[C@@H]1[C@@H]2CC[C@]2(C)C(c3cnccc3F)=CC[C@@H]12,10 to 50
24,CN1C(=O)CC[C@@]2(C)C1=CC[C@@H]1[C@@H]2CC[C@]2(C)C(c3cncc(C(F)F)c3)=CC[C@@H]12,< 10
25,CC1=C2CC[C@@H]3[C@H](CC[C@]4(C)C(c5cccnc5)=CC[C@@H]34)[C@@]2(C)CC/C1=N\O,10 to 50
26,Cc1cnc(F)c(C2=CC[C@H]3[C@@H]4CCC5=CC(=O)CC[C@]5(C)[C@H]4CC[C@]23C)c1,10 to 50
27,Cc1ccncc1C1=CC=C2C3CCC4C[C@@H](O)CC[C@]4(C)C3CC[C@]12C (stereo partly specified),10 to 50
28,CC1C[C@H]2C3=CC=C(c4cncc(C(F)F)c4)[C@@]3(C)CC[C@@H]2[C@@]2(C)CCC(=O)C=C12 (stereo partly specified),< 10
29,C[C@]12CC[C@H]3[C@@H](CC(c4ccccc4)C4=CC(=O)CC[C@@]43C)C1=CC=C2c1cccnc1 (stereo partly specified),10 to 50
30,C[C@]12CC[C@H](O)CC1=CC[C@@H]1[C@@H]2CC[C@]2(C)C(c3cncc(C#N)c3)=CC[C@@H]12,10 to 50

# Second part, the molecule after the results:
row,inhibition at 20 h [%],Compound
1,10 to 50,C[C@]12CC[C@@H](NC(=O)c3nccs3)CC1=CC[C@@H]1[C@@H]2CC[C@]2(C)C(n3ccnc3)=CC[C@@H]12
2,< 10,CC(=O)Nc1cncc(C2=CC[C@H]3[C@@H]4CC=C5C[C@@H](O)CC[C@]5(C)[C@H]4CC[C@]23C)c1
3,10 to 50,CC1C[C@@]2(C)C(CC[C@@H]3[C@@H]2CC[C@]2(C)C(c4cccnc4)=CC[C@@H]32)C(C)C1O (stereo partly specified)
4,< 10,C[C@]12CC[C@H](O)CC1=CC[C@@H]1[C@@H]2CC[C@]2(C)C(c3cncc(NS(C)(=O)=O)c3)=CC[C@@H]12
5,10 to 50,C[C@]12CC[C@@H](NC(=O)c3nccs3)CC1=CC[C@@H]1[C@@H]2CC[C@]2(C)C(c3cccnc3)=CC[C@@H]12
6,10 to 50,C[C@]12CCNC(=O)CC1CC[C@@H]1[C@@H]2CC[C@]2(C)C(c3cncc(F)c3)=CC[C@@H]12 (stereo partly specified)
7,10 to 50,Cc1ccncc1C1=CC[C@H]2[C@@H]3CC[C@H]4CNC(=O)CC[C@]4(C)[C@H]3CC[C@]12C
8,10 to 50,C[C@]12CC[C@H]3[C@@H](CC(Nc4nccs4)C45CC4CC[C@]35C)[C@@H]1CC=C2c1cccnc1 (stereo partly specified)
9,10 to 50,C[C@]12CC[C@H]3[C@@H](CC=C4C[C@@H](OC(=O)Nc5cccnc5)CC[C@@]43C)C1=CC=C2c1cccnc1
10,≥ 50,CCNC(=O)N[C@@H]1CC[C@@]2(C)C(CC[C@@H]3[C@@H]2CC[C@]2(C)C(n4ccnc4)=CC[C@@H]32)C1 (stereo partly specified)
11,10 to 50,C[C@]12CCC(O)(CCCO)CC1CC[C@@H]1[C@@H]2CC[C@]2(C)C(c3cccnc3)=CC[C@@H]12 (stereo partly specified)
12,10 to 50,C[C@@]1(O)CC[C@@]2(C)C(CC[C@@H]3[C@@H]2CC[C@]2(C)C(c4cncc(Cl)c4)=CC[C@@H]32)C1 (stereo partly specified)
13,10 to 50,COc1cncc(C2=CC[C@H]3[C@@H]4CC[C@H]5C[C@@H](OC)CC[C@]5(C)[C@H]4CC[C@]23C)c1
14,10 to 50,CC(C)(C)C(=O)O[C@H]1CC[C@@]2(C)C(=CC[C@H]3C4=CC=C(c5cccnc5)[C@@]4(C)CC[C@@H]32)C1
15,10 to 50,CC1C[C@@H]2[C@H](CC[C@]3(C)C(c4cccnc4)=CC[C@@H]23)[C@@]2(C)CC[C@@](C)(O)CC12 (stereo partly specified)
16,10 to 50,CNC1CC[C@@]2(C)[C@@H](CC[C@@H]3[C@@H]2CC[C@]2(C)C(c4cccnc4)=CC[C@@H]32)C1 (stereo partly specified)

row,inhibition at 20 h [%],Compound
1,< 10,C[C@]12CC[C@H]3[C@@H](CCC45CC4NC(=O)CC[C@]35C)[C@@H]1CC=C2c1cccnc1 (stereo partly specified)
2,10 to 50,C[C@]12CC[C@@H](N=[N+]=[N-])CC1CC[C@@H]1[C@@H]2CC[C@]2(C)C(c3cccnc3)=CC[C@@H]12 (stereo partly specified)
3,10 to 50,C[C@]12CC[C@H]3[C@@H](CC=C4C=CCC[C@@]43C)C1=CC=C2c1cccnc1
4,10 to 50,CCc1ccncc1C1=CC=C2[C@@H]3CCC4CC(=O)CC[C@]4(C)[C@H]3CC[C@]12C (stereo partly specified)
5,< 10,CCNC(=O)O[C@H]1CC[C@@]2(C)C(=CC[C@H]3C4=CC=C(c5cccnc5)[C@@]4(C)CC[C@@H]32)C1
6,10 to 50,CCc1ccncc1C1=CC[C@H]2[C@@H]3CC[C@H]4CC(=O)NCC[C@]4(C)[C@H]3CC[C@]12C
7,10 to 50,CC1CC2[C@H](CC[C@]3(C)C(c4cccnc4)=CC[C@@H]23)[C@@]2(C)CCC(C)(O)C=C12 (stereo partly specified)
8,< 10,Cc1cc(C2=CC[C@H]3[C@@H]4CC=C5C[C@@H](O)CC[C@]5(C)[C@H]4CC[C@]23C)cnc1F
9,10 to 50,C[C@]12CC[C@H]3[C@@H](CC=C4C[C@@H](O)CC[C@@]43C)C1=CC=C2c1cncc(Cl)c1
10,10 to 50,Cc1ccncc1C(=O)O[C@H]1CC[C@@]2(C)C(=CC[C@H]3C4=CC=C(c5cccnc5)[C@@]4(C)CC[C@@H]32)C1
11,10 to 50,CCNC(=S)N[C@@H]1CC[C@@]2(C)C(=CC[C@@H]3[C@@H]2CC[C@]2(C)C(c4cccnc4)=CC[C@@H]32)C1
12,10 to 50,C[C@]12CC[C@H]3[C@@H](CCC45CC4C(O)CC[C@]35C)[C@@H]1CC=C2c1cncc(F)c1 (stereo partly specified)
13,10 to 50,Cc1ccncc1C1=CC=C2[C@@H]3CC[C@H]4CC(=O)NCC[C@]4(C)[C@H]3CC[C@]12C
14,10 to 50,C[C@]12CC[C@H](NC(=O)C(F)(F)F)CC1CC[C@@H]1[C@@H]2CC[C@]2(C)C(c3cccnc3)=CC[C@@H]12 (stereo partly specified)
15,< 10,C[C@]12CCC3(CCC(=O)O3)CC1CC[C@@H]1[C@@H]2CC[C@]2(C)C(c3cccnc3)=CC[C@@H]12 (stereo partly specified)
